The values below come from ChEMBL document CHEMBL2429758, “3-aroylmethylene-2,3,6,7-tetrahydro-1H-pyrazino[2,1-a]isoquinolin-4(11bH)-ones as potent Nrf2/ARE inducers in human cancer cells and AOM-DSS treated mice” (J Med Chem, 2013).

Structures are written as SMILES.

Holding throughout (type): cell-based
For assay [1], the target named is T1, Nuclear factor erythroid 2-related factor 2 (Homo sapiens) (UniProt Q16236).
T1 sequence (whole entry): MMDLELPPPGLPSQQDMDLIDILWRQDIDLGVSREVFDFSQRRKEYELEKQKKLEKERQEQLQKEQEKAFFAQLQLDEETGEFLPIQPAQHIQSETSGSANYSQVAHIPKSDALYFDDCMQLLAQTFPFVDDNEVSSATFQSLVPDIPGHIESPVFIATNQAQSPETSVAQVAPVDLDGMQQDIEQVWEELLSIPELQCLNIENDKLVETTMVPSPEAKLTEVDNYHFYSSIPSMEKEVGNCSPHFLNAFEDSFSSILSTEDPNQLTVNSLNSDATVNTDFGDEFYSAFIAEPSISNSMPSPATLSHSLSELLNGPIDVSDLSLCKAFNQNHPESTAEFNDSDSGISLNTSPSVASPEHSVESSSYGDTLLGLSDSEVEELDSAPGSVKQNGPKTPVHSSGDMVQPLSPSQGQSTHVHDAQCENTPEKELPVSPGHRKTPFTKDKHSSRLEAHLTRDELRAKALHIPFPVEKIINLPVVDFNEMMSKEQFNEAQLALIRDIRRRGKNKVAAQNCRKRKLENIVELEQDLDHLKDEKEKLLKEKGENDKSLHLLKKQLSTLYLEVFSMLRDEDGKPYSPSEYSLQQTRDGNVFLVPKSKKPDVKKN
The experiment in a line: Induction of Nrf2-mediated ARE activity in human HepG2-ARE-C8 cells at 5 uM after 12 hrs by luciferase reporter gene assay relative to control. In general terms: A reporter such as luciferase makes a cellular process visible.

The target of assay [2] is T1, Nuclear factor erythroid 2-related factor 2 (Homo sapiens). The experiment in a line: Induction of Nrf2-mediated ARE activity in human HepG2-ARE-C8 cells at 0.01 uM after 12 hrs by luciferase reporter gene assay relative to control.
Assay [3] has the same target. The experiment in a line: Induction of Nrf2-mediated ARE activity in human HepG2-ARE-C8 cells at 0.1 uM after 12 hrs by luciferase reporter gene assay relative to control.
Assay [4] has the same target. The experiment in a line: Induction of Nrf2-mediated ARE activity in human HepG2-ARE-C8 cells at 10 uM after 12 hrs by luciferase reporter gene assay relative to control.
The target is the same in assay [5]. The experiment in a line: Induction of Nrf2-mediated ARE activity in human HepG2-ARE-C8 cells at 1 uM after 12 hrs by luciferase reporter gene assay relative to control.

Turning to `COc1cc2c(cc1OC)C1CN/C(=C\C(=O)c3ccccc3F)C(=O)N1CC2` (stereo not given), the fold change (FC) came to 0.97 in assay [1]; 1.07 in assay [2]; 0.8 in assay [3]; 1.1 in assay [4]; 0.95 in assay [5].

Consider `O=C(/C=C1\NCC2c3ccccc3CCN2C1=O)c1ccc(Cl)cc1` (stereo not given), for which the fold change (FC) in assay [1] is 3.57; in assay [2], 1.3; in assay [3], 2.33; in assay [4] it was 4; in assay [5] it was 2.61.

Regarding `COc1ccc(C(=O)/C=C2\NCC3c4ccccc4CCN3C2=O)cc1` (stereo not given), the fold change (FC) in assay [1] amounted to 3.3; in assay [2], 1.15; in assay [3], 2.3; in assay [4], 5.07; in assay [5], 2.74.

Take `O=C(/C=C1\NCC2c3ccccc3CCN2C1=O)c1ccc([N+](=O)[O-])cc1` (stereo not given): the fold change (FC) in assay [1] was 2.43; in assay [2], 1.2; in assay [3], 2.34; in assay [4], 3.81; in assay [5], 1.76.

In the case of `COc1ccccc1C(=O)/C=C1\NCC2c3ccccc3CCN2C1=O` (stereo not given), the fold change (FC) in assay [1] was 1.78; in assay [2], 0.96; in assay [3], 1.68; in assay [4], 1.99; in assay [5], 1.51.

As for `O=C(/C=C1\NCC2c3ccccc3CCN2C1=O)c1ccc(-c2ccccc2)cc1` (stereo not given), the fold change (FC) in assay [1] was found to be 1.69; in assay [2], 1.62; in assay [3] it was 1.67; in assay [4], 2.09; in assay [5], 1.41.

Regarding `O=C(/C=C1\NCC2c3ccccc3CCN2C1=O)c1cccc(C(F)(F)F)c1` (stereo not given), the fold change (FC) in assay [1] came out at 3.14; in assay [2], 2.22; in assay [3], 1.7; in assay [4], 3.25; in assay [5], 1.76.

Consider `O=C(/C=C1\NCC2c3ccccc3CCN2C1=O)c1ccc(F)c(F)c1` (stereo not given), for which the fold change (FC) in assay [1] was 5.47; in assay [2], 2.12; in assay [3] it was 2.25; in assay [4] it was 6.38; in assay [5] it was 3.23.

Consider `O=C(/C=C1\NCC2c3ccccc3CCN2C1=O)c1ccc(Cl)cc1Cl` (stereo not given), for which the fold change (FC) in assay [1] was determined as 1.78; in assay [2], 1.68; in assay [3], 1.1; in assay [4] it was 2.49; in assay [5] it was 1.42.

As to `COc1cccc(C(=O)/C=C2\NCC3c4cc(OC)ccc4CCN3C2=O)c1` (stereo not given), the fold change (FC) in assay [1] was 1.36; in assay [2], 1.08; in assay [3], 1.21; in assay [4], 1.59; in assay [5], 1.24.

For `COc1cc2c(cc1OC)C1CN/C(=C\C(=O)c3cccc(F)c3)C(=O)N1CC2` (stereo not given), the fold change (FC) in assay [1] was 1.68; in assay [2], 2.31; in assay [3], 0.93; in assay [4], 1.09; in assay [5] it was 1.05.

Take `COc1cccc2c1CCN1C(=O)/C(=C/C(=O)c3ccccc3F)NCC21` (stereo not given): the fold change (FC) in assay [1] was 5.89; in assay [2], 1.93; in assay [3], 2.83; in assay [4], 4.26; in assay [5] it was 2.98.

Consider `O=C(/C=C1\NCC2c3ccccc3CCN2C1=O)c1cccc([N+](=O)[O-])c1` (stereo not given), for which the fold change (FC) came to 14.5 in assay [1]; 3.28 in assay [2]; 3.52 in assay [3]; 18.5 in assay [4]; 7.22 in assay [5].

Consider `COc1cccc(C(=O)/C=C2\NCC3c4cc(OC)c(OC)cc4CCN3C2=O)c1` (stereo not given), for which the fold change (FC) stood at 1.11 in assay [1]; 1.45 in assay [2]; 1.18 in assay [3]; 1.06 in assay [4]; 0.95 in assay [5].
